In brackets after ≈: the same amount, converted by molar mass.
Key:
Type in all cases: functional
Staphylococcus aureus [1] = test: Antibacterial activity against Staphylococcus aureus ATCC 25923 assessed as inhibition of bacterial growth by standard broth microdilution susceptibility method
Staphylococcus aureus [2] = test: Antibacterial activity against methicillin-resistant Staphylococcus aureus ATCC 43300 assessed as inhibition of bacterial growth by standard broth microdilution susceptibility method
Staphylococcus aureus [3] = test: Antibacterial activity against vancomycin-intermediate Staphylococcus aureus ATCC NRS1 assessed as inhibition of bacterial growth by standard broth microdilution susceptibility method
Staphylococcus aureus [4] = test: Antibacterial activity against heterogenous vancomycin-intermediate Staphylococcus aureus ATCC NRS24 assessed as inhibition of bacterial growth by standard broth microdilution susceptibility method
Enterococcus faecium [5] = test: Antibacterial activity against VanA-resistant Enterococcus faecium MMX0485 assessed as inhibition of bacterial growth by standard broth microdilution susceptibility method
Enterococcus faecalis [6] = test: Antibacterial activity against VanB-resistant Enterococcus faecalis ATCC 51299 assessed as inhibition of bacterial growth by standard broth microdilution susceptibility method
Enterococcus gallinarum [7] = test: Antibacterial activity against VanC-resistant Enterococcus gallinarum ATCC 700221 assessed as inhibition of bacterial growth by standard broth microdilution susceptibility method
Streptococcus pneumoniae [8] = test: Antibacterial activity against […] assessed as inhibition of bacterial growth by standard broth microdilution susceptibility method
Clostridioides difficile [9] = test: Antibacterial activity against Clostridium difficile ATCC 43255 assessed as inhibition of bacterial growth by standard broth microdilution susceptibility method
Moraxella catarrhalis = test: Antibacterial activity against Moraxella catarrhalis ATCC 8193 assessed as inhibition of bacterial growth by standard broth microdilution susceptibility method
Streptococcus pneumoniae [10] = test: Potency index, ratio of vancomycin MIC to test compound MIC for antibacterial activity against […] assessed as inhibition of bacterial growth by standard broth microdilution susceptibility method
Clostridioides difficile [11] = test: Potency index, ratio of vancomycin MIC to test compound MIC for antibacterial activity against Clostridium difficile ATCC 43255 assessed as inhibition of bacterial growth by standard broth microdilution susceptibility method
Enterococcus faecalis [12] = test: Antibiofilm activity against VanB-resistant Enterococcus faecalis ATCC 51299 assessed as inhibition of biofilm formation in BHIG medium incubated for 24 hrs by resazurin assay
Enterococcus faecalis [13] = test: Antibiofilm activity against VanB-resistant Enterococcus faecalis ATCC 51299 assessed as inhibition of biofilm formation by measuring decrease in RFU in BHIG medium incubated for 24 hrs by resazurin assay
Enterococcus faecalis [14] = test: Antibacterial activity against VanB-resistant Enterococcus faecalis ATCC 51299 assessed as inhibition of colony formation in BHIG medium incubated for 24 hrs by resazurin assay
Enterococcus faecalis [15] = test: Antibacterial activity against VanB-resistant Enterococcus faecalis ATCC 51299 assessed as inhibition of bacterial growth in BHIG medium incubated for 24 hrs by resazurin assay
Enterococcus faecalis [16] = test: Antibiofilm activity against VanB-resistant Enterococcus faecalis ATCC 51299 assessed as inhibition of biofilm formation in BHIG medium incubated for 24 hrs by resazurin assay relative to vancomycin
Enterococcus faecium [17] = test: Potency index, ratio of vancomycin MIC to test compound MIC for antibacterial activity against VanA-resistant Enterococcus faecium MMX0485 assessed as inhibition of bacterial growth by standard broth microdilution susceptibility method
Enterococcus faecalis [18] = test: Potency index, ratio of vancomycin MIC to test compound MIC for antibacterial activity against VanB-resistant Enterococcus faecalis ATCC 51299 assessed as inhibition of bacterial growth by standard broth microdilution susceptibility method
Enterococcus gallinarum [19] = test: Potency index, ratio of vancomycin MIC to test compound MIC for antibacterial activity against VanC-resistant Enterococcus gallinarum ATCC 700221 assessed as inhibition of bacterial growth by standard broth microdilution susceptibility method
Staphylococcus aureus [20] = test: Potency index, ratio of vancomycin MIC to test compound MIC for antibacterial activity against vancomycin-intermediate Staphylococcus aureus ATCC NRS1 assessed as inhibition of bacterial growth by standard broth microdilution susceptibility method
Staphylococcus aureus [21] = test: Potency index, ratio of vancomycin MIC to test compound MIC for antibacterial activity against heterogenous vancomycin-intermediate Staphylococcus aureus ATCC NRS24 assessed as inhibition of bacterial growth by standard broth microdilution susceptibility method

Structure (SMILES) | MIC (Staphylococcus aureus [1]) | MIC (Staphylococcus aureus [2]) | MIC (Staphylococcus aureus [3]) | MIC (Staphylococcus aureus [4]) | MIC (Enterococcus faecium [5]) | MIC (Enterococcus faecalis [6]) | MIC (Enterococcus gallinarum [7]) | MIC (Streptococcus pneumoniae [8]) | MIC (Clostridioides difficile [9]) | MIC (Moraxella catarrhalis) | MBIC (Enterococcus faecalis [12]) | inhibition (INH) (Enterococcus faecalis [13]) | Activity (Enterococcus faecalis [14]) | inhibition (INH) (Enterococcus faecalis [15]) | Ratio (Enterococcus faecalis [16]) | Ratio (Enterococcus faecium [17]) | Ratio (Enterococcus faecalis [18]) | Ratio (Enterococcus gallinarum [19]) | other results
CN[C@H](CC(C)C)C(=O)N[C@H]1C(=O)N[C@@H](CC(N)=O)C(=O)N[C@H]2C(=O)N[C@H]3C(=O)N[C@H](C(=O)N[C@H](C(=O)NCCCCCS)c4cc(O)cc(O)c4-c4cc3ccc4O)[C@H](O)c3ccc(c(Cl)c3)Oc3cc2cc(c3O[C@@H]2O[C@H](CO)[C@@H](O)[C@H](O)[C@H]2O[C@H]2C[C@](C)(N)[C@H](O)[C@H](C)O2)Oc2ccc(cc2Cl)[C@H]1O | 8 mg/L (≈ 5.16 µM) | 8 mg/L (≈ 5.16 µM) | 2 mg/L (≈ 1.29 µM) | > 32 mg/L | 1 mg/L (≈ 0.645 µM) | 1 mg/L (≈ 0.645 µM) | 0.5 mg/L (≈ 0.322 µM) | ≤ 0.03 mg/L | 0.06 mg/L (≈ 0.0387 µM) | 4 mg/L (≈ 2.58 µM) | 32 µg/mL | 99% | 32 µg/mL | 100% | – | – | – | – | Ratio (Streptococcus pneumoniae [10]): 16; Ratio (Clostridioides difficile [11]): 16
CN[C@H](CC(C)C)C(=O)N[C@H]1C(=O)N[C@@H](CC(N)=O)C(=O)N[C@H]2C(=O)N[C@H]3C(=O)N[C@H](C(=O)N[C@H](C(=O)NCCS)c4cc(O)cc(O)c4-c4cc3ccc4O)[C@H](O)c3ccc(c(Cl)c3)Oc3cc2cc(c3O[C@@H]2O[C@H](CO)[C@@H](O)[C@H](O)[C@H]2O[C@H]2C[C@](C)(N)[C@H](O)[C@H](C)O2)Oc2ccc(cc2Cl)[C@H]1O | 4 mg/L (≈ 2.65 µM) | 4 mg/L (≈ 2.65 µM) | – | – | – | 2 mg/L (≈ 1.33 µM) | 2 mg/L (≈ 1.33 µM) | – | – | – | 4 µg/mL | 99% | 4 µg/mL | 100% | 16 | – | – | – | –
CN[C@H](CC(C)C)C(=O)N[C@H]1C(=O)N[C@@H](CC(N)=O)C(=O)N[C@H]2C(=O)N[C@H]3C(=O)N[C@H](C(=O)N[C@H](C(=O)NCCSSCCCCC[N+](C)(C)C)c4cc(O)cc(O)c4-c4cc3ccc4O)[C@H](O)c3ccc(c(Cl)c3)Oc3cc2cc(c3O[C@@H]2O[C@H](CO)[C@@H](O)[C@H](O)[C@H]2O[C@H]2C[C@](C)(N)[C@H](O)[C@H](C)O2)Oc2ccc(cc2Cl)[C@H]1O | 1 mg/L | 0.5 mg/L | 1 mg/L | > 32 mg/L | 16 mg/L | 8 mg/L | 4 mg/L | 0.06 mg/L | ≤ 0.015 mg/L | 2 mg/L | 16 µg/mL | 87% | 16 µg/mL | 97% | – | 8 | 8 | 8 | –
CN[C@H](CC(C)C)C(=O)N[C@H]1C(=O)N[C@@H](CC(N)=O)C(=O)N[C@H]2C(=O)N[C@H]3C(=O)N[C@H](C(=O)N[C@H](C(=O)NCCCCCNC(=O)CCCCC4CCSS4)c4cc(O)cc(O)c4-c4cc3ccc4O)[C@H](O)c3ccc(c(Cl)c3)Oc3cc2cc(c3O[C@@H]2O[C@H](CO)[C@@H](O)[C@H](O)[C@H]2O[C@H]2C[C@](C)(N)[C@H](O)[C@H](C)O2)Oc2ccc(cc2Cl)[C@H]1O (some centres undefined) | 2 mg/L (≈ 1.16 µM) | 2 mg/L (≈ 1.16 µM) | 1 mg/L (≈ 0.581 µM) | 32 mg/L (≈ 18.6 µM) | > 32 mg/L | 4 mg/L (≈ 2.32 µM) | 8 mg/L (≈ 4.65 µM) | 0.06 mg/L (≈ 0.0348 µM) | 0.06 mg/L (≈ 0.0348 µM) | 4 mg/L (≈ 2.32 µM) | 8 µg/mL | 100% | 8 µg/mL | 100% | – | – | – | – | Ratio (Staphylococcus aureus [20]): 4; Ratio (Staphylococcus aureus [21]): 4; Ratio (Streptococcus pneumoniae [10]): 4; Ratio (Clostridioides difficile [11]): 4
CN[C@H](CC(C)C)C(=O)N[C@H]1C(=O)N[C@@H](CC(N)=O)C(=O)N[C@H]2C(=O)N[C@H]3C(=O)N[C@H](C(=O)N[C@H](C(=O)NCCSSCCNC(=O)CCSC(c4ccccc4)(c4ccccc4)c4ccccc4)c4cc(O)cc(O)c4-c4cc3ccc4O)[C@H](O)c3ccc(c(Cl)c3)Oc3cc2cc(c3O[C@@H]2O[C@H](CO)[C@@H](O)[C@H](O)[C@H]2O[C@H]2C[C@](C)(N)[C@H](O)[C@H](C)O2)Oc2ccc(cc2Cl)[C@H]1O | 8 mg/L (≈ 4.18 µM) | 4 mg/L (≈ 2.09 µM) | – | – | – | 2 mg/L (≈ 1.04 µM) | 1 mg/L (≈ 0.522 µM) | – | – | – | 2 µg/mL | 97% | 2 µg/mL | 100% | 32 | 8 | 8 | 8 | Ratio (Staphylococcus aureus [20]): 8; Ratio (Staphylococcus aureus [21]): 8
CN[C@H](CC(C)C)C(=O)N[C@H]1C(=O)N[C@@H](CC(N)=O)C(=O)N[C@H]2C(=O)N[C@H]3C(=O)N[C@H](C(=O)N[C@H](C(=O)NCCSSCC[N+](C)(C)C)c4cc(O)cc(O)c4-c4cc3ccc4O)[C@H](O)c3ccc(c(Cl)c3)Oc3cc2cc(c3O[C@@H]2O[C@H](CO)[C@@H](O)[C@H](O)[C@H]2O[C@H]2C[C@](C)(N)[C@H](O)[C@H](C)O2)Oc2ccc(cc2Cl)[C@H]1O | 1 mg/L | 0.5 mg/L | 0.5 mg/L | > 32 mg/L | 32 mg/L | 16 mg/L | 4 mg/L | 0.25 mg/L | ≤ 0.015 mg/L | 2 mg/L | 16 µg/mL | 91% | 16 µg/mL | 100% | – | 8 | 8 | 8 | –
CN[C@H](CC(C)C)C(=O)N[C@H]1C(=O)N[C@@H](CC(N)=O)C(=O)N[C@H]2C(=O)N[C@H]3C(=O)N[C@H](C(=O)N[C@H](C(=O)NCCSSCCCCCCCCCCC[N+](C)(C)C)c4cc(O)cc(O)c4-c4cc3ccc4O)[C@H](O)c3ccc(c(Cl)c3)Oc3cc2cc(c3O[C@@H]2O[C@H](CO)[C@@H](O)[C@H](O)[C@H]2O[C@H]2C[C@](C)(N)[C@H](O)[C@H](C)O2)Oc2ccc(cc2Cl)[C@H]1O | 1 mg/L | 0.5 mg/L | 0.25 mg/L | 8 mg/L | 16 mg/L | 2 mg/L | 2 mg/L | 0.12 mg/L | 1 mg/L | 1 mg/L | 4 µg/mL | 84% | 4 µg/mL | 98% | 16 | 8 | 8 | 8 | –
CN[C@H](CC(C)C)C(=O)N[C@H]1C(=O)N[C@@H](CC(N)=O)C(=O)N[C@H]2C(=O)N[C@H]3C(=O)N[C@H](C(=O)N[C@H](C(=O)NCCCS)c4cc(O)cc(O)c4-c4cc3ccc4O)[C@H](O)c3ccc(c(Cl)c3)Oc3cc2cc(c3O[C@@H]2O[C@H](CO)[C@@H](O)[C@H](O)[C@H]2O[C@H]2C[C@](C)(N)[C@H](O)[C@H](C)O2)Oc2ccc(cc2Cl)[C@H]1O | 4 mg/L (≈ 2.63 µM) | 4 mg/L (≈ 2.63 µM) | 8 mg/L (≈ 5.25 µM) | > 32 mg/L | 1 mg/L (≈ 0.657 µM) | 4 mg/L (≈ 2.63 µM) | 1 mg/L (≈ 0.657 µM) | ≤ 0.03 mg/L | 0.12 mg/L (≈ 0.0788 µM) | 16 mg/L (≈ 10.5 µM) | 4 µg/mL | 95% | 4 µg/mL | 100% | 16 | – | – | – | –

— ChEMBL document CHEMBL5143550, “Thiol- and Disulfide-Containing Vancomycin Derivatives Against Bacterial Resistance and Biofilm Formation” (2021)
